Key:
Assay type in all cases: in vivo
[1] = tested on: Lolium rigidum (LOLRI); test: A. Herbicidal pre-emergence efficacy, LOLRI; details: dosage 1280 g/ha
Source text: (§1) Seeds of mono- and dicotyledonous weed plants were placed in plastic pots in sandy loam soil (doubly sown with one species each of mono- or dicotyledonous weed plants per pot) and covered with soil. The compounds of the invention, formulated in the form of wettable powders (WP) or as emulsion concentrates (EC), were then applied onto the surface of the covering soil as aqueous suspension or emulsion with addition of 0.5% additive at a water application rate of 600 liters per hectare (converted). After the treatment, the pots were placed in a greenhouse and kept under good growth conditions for the test plants. After about 3 weeks, the efficacy of the preparations was scored visually in comparison with untreated controls as percentages.
(§2) For example, • 100% efficacy=plants have died, • 0% efficacy=like untreated control plants.
(§3) Tables A1a to A12c below show the effects of selected compounds of the general formula (I) according to table 1 on various harmful plants at an application rate corresponding to 1280 g/ha or less, which were obtained by the experimental procedure mentioned above.

[2] = tested on: Setaria viridis (SETVI); test: B. Herbicidal post-emergence efficacy, SETVI; details: 1280 g/ha
Procedure: (§4) Seeds of mono- and dicotyledonous weed plants were placed in plastic pots in sandy loam soil (doubly sown with in each case one species of mono- or dicotyledonous weed plants per pot), covered with soil and cultivated in a greenhouse under controlled growth conditions. 2 to 3 weeks after sowing, the test plants were treated at the one-leaf stage. The compounds of the invention, formulated in the form of wettable powders (WP) or as emulsion concentrates (EC), were applied onto the green parts of the plants as aqueous suspension or emulsion with addition of 0.5% additive at a water application rate of 600 liters per hectare (converted). After the test plants had been kept in the greenhouse under optimum growth conditions for about 3 weeks, the activity of the preparations was rated visually in comparison to untreated controls.
(§5) For example, • 100% efficacy=plants have died, • 0% efficacy=like untreated control plants
(§6) Tables B1a to B12c below show the effects of selected inventive compounds of the general formula (I) according to table 1 on various harmful plants at an application rate corresponding to 1280 g/ha or less, which were obtained by the experimental procedure mentioned above.

[3] = tested on: Stellaria media (STEME); test: A. Herbicidal pre-emergence efficacy, STEME
How it was run: (§7)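 Applied before emergence onto covering soil at rates of 1280 g/ha or less, using 600 L/ha spray water with 0.5% additive. Scoring: visual % efficacy after ~3 weeks, greenhouse.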

[4] = tested on: Digitaria sanguinalis (DIGSA); test: A. Herbicidal pre-emergence efficacy, DIGSA; details: scored visually after about 3 weeks vs untreated controls
How it was run: as §7

[5] = tested on: Matricaria inodora (MATIN); test: A. Herbicidal pre-emergence efficacy, MATIN; details: pre-emergence, dosage 1280 g/ha
Source text: as §1, §2, §3

[6] = tested on: Digitaria sanguinalis (DIGSA); test: B. Herbicidal post-emergence efficacy, DIGSA; details: 1280 g/ha, rated visually after about 3 weeks
Procedure: as §4, §5, §6

[7] = tested on: Veronica persica (VERPE); test: A. Herbicidal pre-emergence efficacy, VERPE
How it was run: as §7

[8] = tested on: Abutilon theophrasti (ABUTH); test: A. Herbicidal pre-emergence efficacy, ABUTH; details: scored visually after about 3 weeks vs untreated controls
How it was run: as §7

[9] = tested on: Stellaria media (STEME); test: B. Herbicidal post-emergence efficacy, STEME
How it was run: (§8)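 Post-emergence foliar spray, at application rates of 1280 g/ha or less, on one-leaf-stage plants 2–3 weeks post-sowing, using aqueous WP or EC suspensions with 0.5% additive at 600 L/ha. Visual percent efficacy relative to untreated plants scored roughly 3 weeks later in the greenhouse.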

[10] = tested on: Kochia scoparia (KCHSC); test: B. Herbicidal post-emergence efficacy, KCHSC; details: 1280 g/ha
How it was run: as §8

[11] = tested on: Amaranthus retroflexus (AMARE); test: A. Herbicidal pre-emergence efficacy, AMARE
How it was run: as §7

[12] = tested on: Echinochloa crus-galli (ECHCG); test: A. Herbicidal pre-emergence efficacy, ECHCG; details: scored visually after about 3 weeks vs untreated controls
How it was run: as §7

[13] = tested on: Veronica persica (VERPE); test: B. Herbicidal post-emergence efficacy, VERPE
How it was run: as §8

[14] = tested on: Setaria viridis (SETVI); test: A. Herbicidal pre-emergence efficacy, SETVI
How it was run: as §7

[15] = tested on: Poa annua (POAAN); test: B. Herbicidal post-emergence efficacy, POAAN
How it was run: as §8

[16] = tested on: Abutilon theophrasti (ABUTH); test: B. Herbicidal post-emergence efficacy, ABUTH; details: rated visually after about 3 weeks
How it was run: as §8

[17] = tested on: Poa annua (POAAN); test: A. Herbicidal pre-emergence efficacy, POAAN
How it was run: as §7

[18] = tested on: Echinochloa crus-galli (ECHCG); test: B. Herbicidal post-emergence efficacy, ECHCG; details: 1280 g/ha, rated visually after about 3 weeks
How it was run: as §8

[19] = tested on: Amaranthus retroflexus (AMARE); test: B. Herbicidal post-emergence efficacy, AMARE
How it was run: as §8

[20] = tested on: Alopecurus myosuroides (ALOMY); test: A. Herbicidal pre-emergence efficacy, ALOMY; details: 1280 g/ha; scored visually after about 3 weeks vs untreated controls
Source text: as §1, §2, §3

[21] = tested on: Kochia scoparia (KCHSC); test: A. Herbicidal pre-emergence efficacy, KCHSC; details: pre-emergence, dosage 1280 g/ha
How it was run: as §7

Compound | Pre-emergence efficacy against LOLRI [1] | Pre-emergence efficacy against STEME ([3]; dosage 1280 g/ha) | Pre-emergence efficacy against DIGSA ([4]; 320 g/ha) | Pre-emergence efficacy against DIGSA ([4]; 1280 g/ha) | Pre-emergence efficacy against MATIN [5] | Pre-emergence efficacy against VERPE in % ([7]; 320 g/ha) | Pre-emergence efficacy against VERPE in % ([7]; 1280 g/ha) | Pre-emergence efficacy against ABUTH ([8]; 1280 g/ha) | Post-emergence efficacy against STEME ([9]; 80 g/ha) | Post-emergence efficacy against STEME ([9]; 320 g/ha) | Post-emergence efficacy against STEME ([9]; 1280 g/ha) | Post-emergence efficacy against KCHSC [10] | Pre-emergence efficacy against AMARE in % ([11]; 320 g/ha) | Pre-emergence efficacy against AMARE in % ([11]; 1280 g/ha) | Pre-emergence efficacy against ECHCG ([12]; 1280 g/ha) | Post-emergence efficacy against VERPE ([13]; 80 g/ha) | Post-emergence efficacy against VERPE ([13]; 320 g/ha) | Post-emergence efficacy against VERPE ([13]; 1280 g/ha) | Pre-emergence efficacy against SETVI ([14]; dosage 320 g/ha) | Pre-emergence efficacy against SETVI ([14]; dosage 1280 g/ha) | also measured
Cc1cccc(Oc2ncc(Br)cn2)c1OS(=O)(=O)CCC(F)(F)F [Example I-33] | 100% | 100% | 100% | 100% | 90% | 100% | 100% | 100% | 90% | 100% | 100% | 100% | 100% | 100% | 100% | 100% | 100% | 100% | 100% | 100% | Post-emergence efficacy against SETVI [2]: 100%; Pre-emergence efficacy against STEME ([3]; dosage 80 g/ha): 100%; Pre-emergence efficacy against STEME ([3]; dosage 320 g/ha): 100%; Post-emergence efficacy against DIGSA in % [6]: 90%; Pre-emergence efficacy against VERPE ([7]; dosage 80 g/ha): 90%; Pre-emergence efficacy against ABUTH ([8]; 320 g/ha): 100%; Pre-emergence efficacy against AMARE in % ([11]; 80 g/ha): 90%; Pre-emergence efficacy against ECHCG ([12]; 320 g/ha): 100%; Post-emergence efficacy against POAAN ([15]; 320 g/ha): 90%; Post-emergence efficacy against POAAN ([15]; 1280 g/ha): 100%; Post-emergence efficacy against ABUTH in % ([16]; 320 g/ha): 90%; Post-emergence efficacy against ABUTH in % ([16]; 1280 g/ha): 100%; Pre-emergence efficacy against POAAN ([17]; dosage 320 g/ha): 100%; Pre-emergence efficacy against POAAN ([17]; dosage 1280 g/ha): 100%; Post-emergence efficacy against ECHCG in % [18]: 100%; Post-emergence efficacy against AMARE ([19]; 320 g/ha): 90%; Post-emergence efficacy against AMARE ([19]; 1280 g/ha): 100%
Cc1cccc(Oc2ncc(Br)cn2)c1OS(=O)(=O)CCCC(F)(F)F [Example I-35] | 100% | 100% | 90% | 100% | 100% | 90% | 100% | 100% | 90% | 100% | 100% | 100% | 90% | 100% | 100% | 90% | 90% | 100% | 100% | 100% | Pre-emergence efficacy against ALOMY [20]: 90%; Pre-emergence efficacy against KCHSC [21]: 90%; Post-emergence efficacy against POAAN ([15]; 1280 g/ha): 90%; Post-emergence efficacy against ABUTH in % ([16]; 320 g/ha): 100%; Post-emergence efficacy against ABUTH in % ([16]; 1280 g/ha): 100%; Pre-emergence efficacy against POAAN ([17]; dosage 320 g/ha): 100%; Pre-emergence efficacy against POAAN ([17]; dosage 1280 g/ha): 100%; Post-emergence efficacy against ECHCG in % [18]: 90%; Post-emergence efficacy against AMARE ([19]; 320 g/ha): 90%; Post-emergence efficacy against AMARE ([19]; 1280 g/ha): 100%
